From doi:10.1101/2025.11.24.689453v1, “Structural basis of stereochemical promiscuity by an umami taste receptor ortholog, Tas1r1/Tas1r3 from pufferfish” (biorxiv, 2025) come the findings set out here.

In assay [1] the target is T1, full-length pufferfish Tas1r1/Tas1r3 (Takifugu rubripes, UniProt Q2MHJ8+Q2MHK1).
T1 construct: full-length heterodimer, transiently expressed in HEK293T with rat G15i2 and mt-apoclytin-II
T1 sequence (Q2MHK1 25-845): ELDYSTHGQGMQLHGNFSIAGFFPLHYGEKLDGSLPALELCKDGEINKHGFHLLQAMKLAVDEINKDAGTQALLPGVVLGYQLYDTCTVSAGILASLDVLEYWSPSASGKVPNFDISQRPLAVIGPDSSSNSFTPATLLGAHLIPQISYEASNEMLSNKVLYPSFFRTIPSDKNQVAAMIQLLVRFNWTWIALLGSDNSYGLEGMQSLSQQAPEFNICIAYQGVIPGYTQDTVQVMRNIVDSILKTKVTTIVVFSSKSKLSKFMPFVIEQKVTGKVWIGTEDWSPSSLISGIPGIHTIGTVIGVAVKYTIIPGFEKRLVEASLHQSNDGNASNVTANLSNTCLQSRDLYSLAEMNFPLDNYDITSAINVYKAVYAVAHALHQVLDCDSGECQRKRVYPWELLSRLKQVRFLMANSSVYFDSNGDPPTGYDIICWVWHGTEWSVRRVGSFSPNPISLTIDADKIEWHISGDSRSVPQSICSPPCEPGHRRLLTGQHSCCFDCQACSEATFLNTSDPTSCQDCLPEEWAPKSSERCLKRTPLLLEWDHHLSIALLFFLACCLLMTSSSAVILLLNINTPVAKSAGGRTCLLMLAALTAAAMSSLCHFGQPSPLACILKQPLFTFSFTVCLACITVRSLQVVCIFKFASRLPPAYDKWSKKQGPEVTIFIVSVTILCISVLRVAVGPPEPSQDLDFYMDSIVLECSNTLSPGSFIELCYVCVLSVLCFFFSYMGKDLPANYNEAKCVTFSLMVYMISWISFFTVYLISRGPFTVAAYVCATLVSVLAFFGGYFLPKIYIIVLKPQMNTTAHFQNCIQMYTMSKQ
T1 sequence (Q2MHJ8 20-853): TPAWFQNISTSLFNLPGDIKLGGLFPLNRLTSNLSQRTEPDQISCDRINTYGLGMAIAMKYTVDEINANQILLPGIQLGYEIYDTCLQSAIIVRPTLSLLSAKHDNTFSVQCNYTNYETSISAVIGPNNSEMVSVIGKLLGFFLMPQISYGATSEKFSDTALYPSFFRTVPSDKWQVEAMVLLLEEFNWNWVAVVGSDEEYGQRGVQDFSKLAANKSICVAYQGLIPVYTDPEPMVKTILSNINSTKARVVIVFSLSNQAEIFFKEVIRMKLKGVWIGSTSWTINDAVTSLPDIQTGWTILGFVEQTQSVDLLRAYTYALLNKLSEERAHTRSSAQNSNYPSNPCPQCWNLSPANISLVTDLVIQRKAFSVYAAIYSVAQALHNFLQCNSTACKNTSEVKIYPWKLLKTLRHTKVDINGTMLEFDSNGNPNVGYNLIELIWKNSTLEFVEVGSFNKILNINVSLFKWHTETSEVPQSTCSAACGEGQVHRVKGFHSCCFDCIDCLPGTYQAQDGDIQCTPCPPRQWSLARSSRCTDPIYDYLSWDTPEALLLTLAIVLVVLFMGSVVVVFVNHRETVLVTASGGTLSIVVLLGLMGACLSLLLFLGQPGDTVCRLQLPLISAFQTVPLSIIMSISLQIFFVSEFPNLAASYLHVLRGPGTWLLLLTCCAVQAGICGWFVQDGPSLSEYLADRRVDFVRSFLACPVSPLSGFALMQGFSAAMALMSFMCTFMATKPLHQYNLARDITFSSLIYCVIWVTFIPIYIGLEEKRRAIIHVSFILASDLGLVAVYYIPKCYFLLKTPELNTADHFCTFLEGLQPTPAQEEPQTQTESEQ
Nature of the assay: luminometric Ca2+ response (mt-clytin-II), HEK293T. Conditions: agonist. The class given is cell-based.

Assay [2] deals with T2, pufferfish Tas1r1/Tas1r3LBD ("wild-type", free-cysteine eliminated) (Takifugu rubripes, UniProt Q2MHJ8+Q2MHK1, Q2MHJ8:C238S/Q2MHK1:C242S/Q2MHK1:Y385F).
T2 construct: Tas1r1 Met1-Ser501 with C-terminal PA tag, Tas1r3 Met1-Ser496 with C-terminal FLAG tag; Endo H treated for crystals
Nature of the assay: differential scanning fluorimetry. Conditions: read-out: Kd-app. The class given is binding. The source says: (§1) differential scanning fluorimetry on pufferfish Tas1r1/Tas1r3LBD ("wild-type", free-cysteine eliminated)

For assay [3], the target named is T3, pufferfish Tas1r1/Tas1r3LBD ("wild-type", free-cysteine eliminated) (Takifugu rubripes, UniProt Q2MHJ8+Q2MHK1, Q2MHJ8:C238S/Q2MHK1:C242S/Q2MHK1:D306A).
T3 construct: Tas1r1 Met1-Ser501 with C-terminal PA tag, Tas1r3 Met1-Ser496 with C-terminal FLAG tag; Endo H treated for crystals
Briefly: differential scanning fluorimetry. The format is binding. Conditions: read-out: Kd-app.
From the text: as §1

Assay [4] has as its target T4, pufferfish Tas1r1/Tas1r3LBD ("wild-type", free-cysteine eliminated) (Takifugu rubripes, UniProt Q2MHJ8+Q2MHK1, Q2MHJ8:C238S/Q2MHK1:C242S/Q2MHK1:R469V).
T4 construct: Tas1r1 Met1-Ser501 with C-terminal PA tag, Tas1r3 Met1-Ser496 with C-terminal FLAG tag; Endo H treated for crystals
Nature of the assay: differential scanning fluorimetry. The format is binding. Conditions: read-out: Kd-app.
From the text: as §1

In assay [5] the target is T5, pufferfish Tas1r1/Tas1r3LBD ("wild-type", free-cysteine eliminated) (Takifugu rubripes, UniProt Q2MHJ8+Q2MHK1, Q2MHJ8:C238S/Q2MHK1:C242S).
T5 construct: Tas1r1 Met1-Ser501 with C-terminal PA tag, Tas1r3 Met1-Ser496 with C-terminal FLAG tag; Endo H treated for crystals
Nature of the assay: differential scanning fluorimetry. The format is binding. The note with it: read-out: Kd-app.
From the text: as §1

In assay [6] the target is T6, pufferfish Tas1r1/Tas1r3LBD ("wild-type", free-cysteine eliminated) (Takifugu rubripes, UniProt Q2MHJ8+Q2MHK1, Q2MHJ8:C238S/Q2MHK1:C242S/Q2MHK1:E174A).
T6 construct: Tas1r1 Met1-Ser501 with C-terminal PA tag, Tas1r3 Met1-Ser496 with C-terminal FLAG tag; Endo H treated for crystals
Briefly: differential scanning fluorimetry. The class given is binding. The note with it: read-out: Kd-app.
From the text: as §1

Assay [7] deals with T5, pufferfish Tas1r1/Tas1r3LBD ("wild-type", free-cysteine eliminated). Nature of the assay: X-ray crystal structure; DSF. The class given is binding. Conditions: orthosteric site in both subunits.

Molecules are shown by their SMILES.

Turning to `C[C@H](N)C(=O)O` [L-alanine], the “response at 50 mM” value in assay [1] is “The receptor bound and responded to a wide range of L-amino acids, including L-alanine”. The Kd in assay [2] is 186 ± 13 µM; in assay [3], 97.9 ± 22.5 µM; in assay [4] it was 203 ± 13 µM; in assay [5], 126 ± 7 µM; in assay [6] it was 61.4 ± 17.7 µM.

As to `CC(C)(N)C(=O)O` [2-methylalanine], the Kd in assay [5] turned out to be 1290 ± 140 µM.

Regarding `CN[C@@H](C)C(=O)O` [N-methyl-L-alanine], the Kd in assay [5] worked out at 345 ± 8 µM.

In the case of `N[C@H](Cc1ccccc1)C(=O)O` [D-phenylalanine], the “X-ray crystal structure; DSF” value in assay [7] is given as “D-phenylalanine-bound Tas1r1/Tas1r3LBD structure also adopts a compact dimerization manner”. Moreover, in assay [1], the “response at 50 mM” value is “D-alanine and D-phenylalanine demonstrated a relatively high extent of binding and evoked low”.

On to `C[C@@H](N)C(=O)O` [D-alanine], for which, in assay [1], the “response at 50 mM” value is “D-alanine and D-phenylalanine demonstrated a relatively high extent of binding and evoked low”. Moreover, the Kd in assay [2] is 1980 ± 120 µM; in assay [3], 3140 ± 910 µM; in assay [4], 1880 ± 140 µM; in assay [5] it was 1440 ± 90 µM; in assay [6], 1690 ± 460 µM.
